Test results from paper PMC10482267, “Safety, tolerability, pharmacokinetics, and pharmacodynamics of single and multiple doses of aficamten in healthy Chinese participants: a randomized, double-blind, placebo-controlled, phase 1 study” (Frontiers in Pharmacology, 2023).
“Also recorded” adds a separate entry of the source. Read-outs that look alike come from different tables or passages of the source.

Assays:
[1] = system: healthy Western participants; settings: 2022, cited from earlier work
[2] = system: healthy Chinese participants; type: in vivo, human
Description: Of note, the study was not designed to identify a maximum tolerated dose. Dose escalation was to stop if a non-tolerated dose was identified. PD endpoints, including left ventricular ejection fraction (LVEF), would be measured with echocardiograms, which were reviewed by an independent cardiologist for safety assessments. The study drug would be discontinued for participants who develop left ventricular dysfunction according to pre-specified stopping rules. For additional safety monitoring, an independent, unblinded cardiologist was present at the clinical research unit from dosing through the completion of the echocardiogram on the last dosing day.
Echocardiography assessments (left ventricular fractional shortening [LVFS], left ventricular stroke volume [LVSV], left ventricular outflow tract velocity time integral [LVOT-VTI], left ventricular end-systolic volume [LVESV], left ventricular end-diastolic volume [LVEDV], left ventricular cardiac output [LVCO], and LVEF) for the SAD cohorts were collected on day 1 (baseline) and at 1.5, 4, and 24 h post-dose on day 1. For the MD cohort, the assessments were collected on day 1 (baseline) at 1.5 and 4 h post-dose on day 1, at 1.5 h post-dose on days 2, 4, and 9, and at 3 and 24 h post-dose on day 14.
Of all the echocardiography parameters, the key parameters LVEF and LVFS were classified as follows with the number of participants summarized for each dosing condition: for the LVEF category, baseline LVEF ≥60%, and post-dose LVEF <50% or <45%; change of LVEF from baseline ≤ 5%, ≤10%, or ˂15%; for the VLFS category, change of LVFS from baseline ≤ 5%, ≤10%, or ˂15%. The dose–PD response relationship between the aficamten dose and placebo group was assessed using ANOVA analysis. […] Furthermore, the relationship between PK concentration–PD response was also assessed using ANCOVA analysis of post-dose PD parameters based on changes from baseline. The model included changes from baseline in PD parameters as the dependent variables, concentration tertiles (categorical variables) as fixed effects, baseline PD parameters as covariates, and the random intercept to account for repeated measures. In addition, the heart rate (HR), systolic blood pressure (SBP), and diastolic blood pressure (DBP) were collected as a part of the vital sign assessments at pre-dose and post-dose.

[3] = MD 5 mg N=9, 25.5 h (1.5 hours post-dose on Day 2)
[4] = MD 5 mg N=9, 73.5 h (1.5 hours post-dose on Day 4)
[5] = MD 5 mg N=9, 193.5 h (1.5 hours post-dose on Day 9)
[6] = MD 5 mg N=9, 315 h (3 hours post-dose on Day 14)
[7] = MD 5 mg N=9, 336 h (24 hours post-dose on Day 14)

CCc1nc(-c2ccc3c(c2)CC[C@H]3NC(=O)c2cnn(C)c2)no1 [aficamten]
accumulation ratio (AR_AUC0-24) ([1]; 5 mg QD 14 days, healthy Western participants, CY 6011, ref Robertson et al., 2019, Malik et al.): 4.71
Cmax, mean (SD) ([1]; 10 mg single dose, healthy Western participants, ref Malik et al.): 70.5 (69.0) ng/mL
effect of CYP2D6 poor metabolizer status on aficamten exposure ([1]; CYP2D6-PM cohort vs non-poor metabolizers, CY 6011, ref Malik et al.): comparable; also recorded: did not affect the pharmacokinetics
median tmax ([1]; SAD 10 mg, healthy Western participants, ref Malik et al.): 1.8 h
time after which steady-state appeared evident ([1]; daily dosing, CY 6011, ref Robertson et al., 2019, Malik et al.): 14 days
safety and tolerability ([1]; healthy Western populations, FIH phase 1, ref Robertson et al., 2019, Malik et al.): safe and well-tolerated
LVEF Change From Baseline ≤ -5, participants ([2]; MD 5 mg N=9, 1.5 h): 1 (11.11%) n (%)
LVEF Change From Baseline ≤ -10, participants ([2]; MD 5 mg N=9, 1.5 h): 0 (0%) n (%)
LVEF Change From Baseline ≤ -15, participants ([2]; MD 5 mg N=9, 1.5 h): 0 (0%) n (%)
LVFS Change from Baseline ≤ -5, participants ([2]; MD 5 mg N=9, 1.5 h): 3 (33.33%) n (%)
LVFS Change from Baseline ≤ -10, participants ([2]; MD 5 mg N=9, 1.5 h): 1 (11.11%) n (%)
LVFS Change from Baseline ≤ -15, participants ([2]; MD 5 mg N=9, 1.5 h): 0 (0%) n (%)
LVEF Change From Baseline ≤ -5, participants [2, 3]: 4 (44.44%) n (%)
LVEF Change From Baseline ≤ -10, participants [2, 3]: 0 (0%) n (%)
LVEF Change From Baseline ≤ -15, participants [2, 3]: 0 (0%) n (%)
LVFS Change from Baseline ≤ -5, participants [2, 3]: 4 (44.44%) n (%)
LVFS Change from Baseline ≤ -10, participants [2, 3]: 0 (0%) n (%)
LVFS Change from Baseline ≤ -15, participants [2, 3]: 0 (0%) n (%)
LVEF Change From Baseline ≤ -5, participants [2, 4]: 3 (33.33%) n (%)
LVEF Change From Baseline ≤ -10, participants [2, 4]: 0 (0%) n (%)
LVEF Change From Baseline ≤ -15, participants [2, 4]: 0 (0%) n (%)
LVFS Change from Baseline ≤ -5, participants [2, 4]: 5 (55.56%) n (%)
LVFS Change from Baseline ≤ -10, participants [2, 4]: 1 (11.11%) n (%)
LVFS Change from Baseline ≤ -15, participants [2, 4]: 0 (0%) n (%)
LVEF Change From Baseline ≤ -5, participants [2, 5]: 1 (11.11%) n (%)
LVEF Change From Baseline ≤ -10, participants [2, 5]: 0 (0%) n (%)
LVEF Change From Baseline ≤ -15, participants [2, 5]: 0 (0%) n (%)
LVFS Change from Baseline ≤ -5, participants [2, 5]: 4 (44.44%) n (%)
LVFS Change from Baseline ≤ -10, participants [2, 5]: 0 (0%) n (%)
LVFS Change from Baseline ≤ -15, participants [2, 5]: 0 (0%) n (%)
LVEF Change From Baseline ≤ -5, participants [2, 6]: 2 (22.22%) n (%)
LVEF Change From Baseline ≤ -10, participants [2, 6]: 0 (0%) n (%)
LVEF Change From Baseline ≤ -15, participants [2, 6]: 0 (0%) n (%)
LVFS Change from Baseline ≤ -5, participants [2, 6]: 1 (11.11%) n (%)
LVFS Change from Baseline ≤ -10, participants [2, 6]: 0 (0%) n (%)
LVFS Change from Baseline ≤ -15, participants [2, 6]: 0 (0%) n (%)
LVEF Change From Baseline ≤ -5, participants [2, 7]: 2 (22.22%) n (%)
LVEF Change From Baseline ≤ -10, participants [2, 7]: 0 (0%) n (%)
LVEF Change From Baseline ≤ -15, participants [2, 7]: 0 (0%) n (%)
LVFS Change from Baseline ≤ -5, participants [2, 7]: 1 (11.11%) n (%)
LVFS Change from Baseline ≤ -10, participants [2, 7]: 0 (0%) n (%)
LVFS Change from Baseline ≤ -15, participants [2, 7]: 0 (0%) n (%)
exposure–response analysis of change from baseline in echocardiogram parameters vs time-matched plasma concentrations ([2]; MD 5 mg cohort): did not show a statistically significant effect
LVEF Change From Baseline ≤ -5, participants ([2]; SAD 10 mg N=6, 1.5 h): 1 (16.67%) n (%)
LVEF Change From Baseline ≤ -10, participants ([2]; SAD 10 mg N=6, 1.5 h): 0 (0%) n (%)
LVEF Change From Baseline ≤ -15, participants ([2]; SAD 10 mg N=6, 1.5 h): 0 (0%) n (%)
LVFS Change from Baseline ≤ -5, participants ([2]; SAD 10 mg N=6, 1.5 h): 1 (16.67%) n (%)
LVFS Change from Baseline ≤ -10, participants ([2]; SAD 10 mg N=6, 1.5 h): 0 (0%) n (%)
LVFS Change from Baseline ≤ -15, participants ([2]; SAD 10 mg N=6, 1.5 h): 0 (0%) n (%)
LVEF Change From Baseline ≤ -5, participants ([2]; SAD 10 mg N=6, 4 h): 1 (16.67%) n (%)
LVEF Change From Baseline ≤ -10, participants ([2]; SAD 10 mg N=6, 4 h): 0 (0%) n (%)
LVEF Change From Baseline ≤ -15, participants ([2]; SAD 10 mg N=6, 4 h): 0 (0%) n (%)
LVFS Change from Baseline ≤ -5, participants ([2]; SAD 10 mg N=6, 4 h): 0 (0%) n (%)
LVFS Change from Baseline ≤ -10, participants ([2]; SAD 10 mg N=6, 4 h): 0 (0%) n (%)
LVFS Change from Baseline ≤ -15, participants ([2]; SAD 10 mg N=6, 4 h): 0 (0%) n (%)
LVEF Change From Baseline ≤ -5, participants ([2]; SAD 10 mg N=6, 24 h): 0 (0%) n (%)
LVEF Change From Baseline ≤ -10, participants ([2]; SAD 10 mg N=6, 24 h): 0 (0%) n (%)
LVEF Change From Baseline ≤ -15, participants ([2]; SAD 10 mg N=6, 24 h): 0 (0%) n (%)
LVFS Change from Baseline ≤ -5, participants ([2]; SAD 10 mg N=6, 24 h): 1 (16.67%) n (%)
LVFS Change from Baseline ≤ -10, participants ([2]; SAD 10 mg N=6, 24 h): 0 (0%) n (%)
LVFS Change from Baseline ≤ -15, participants ([2]; SAD 10 mg N=6, 24 h): 0 (0%) n (%)
number of subjects with LVEF reduction of 5%–10% ([2]; SAD 10 mg-dose group, 1.5 h post-dose): one
LVEF Change From Baseline ≤ -5, participants ([2]; SAD 20 mg N=6, 1.5 h): 3 (50%) n (%)
LVEF Change From Baseline ≤ -10, participants ([2]; SAD 20 mg N=6, 1.5 h): 1 (16.67%) n (%)
LVEF Change From Baseline ≤ -15, participants ([2]; SAD 20 mg N=6, 1.5 h): 0 (0%) n (%)
LVFS Change from Baseline ≤ -5, participants ([2]; SAD 20 mg N=6, 1.5 h): 3 (50%) n (%)
LVFS Change from Baseline ≤ -10, participants ([2]; SAD 20 mg N=6, 1.5 h): 1 (16.67%) n (%)
LVFS Change from Baseline ≤ -15, participants ([2]; SAD 20 mg N=6, 1.5 h): 0 (0%) n (%)
LVEF Change From Baseline ≤ -5, participants ([2]; SAD 20 mg N=6, 4 h): 2 (33.33%) n (%)
LVEF Change From Baseline ≤ -10, participants ([2]; SAD 20 mg N=6, 4 h): 0 (0%) n (%)
LVEF Change From Baseline ≤ -15, participants ([2]; SAD 20 mg N=6, 4 h): 0 (0%) n (%)
LVFS Change from Baseline ≤ -5, participants ([2]; SAD 20 mg N=6, 4 h): 1 (16.67%) n (%)
LVFS Change from Baseline ≤ -10, participants ([2]; SAD 20 mg N=6, 4 h): 0 (0%) n (%)
LVFS Change from Baseline ≤ -15, participants ([2]; SAD 20 mg N=6, 4 h): 0 (0%) n (%)
LVEF Change From Baseline ≤ -5, participants ([2]; SAD 20 mg N=6, 24 h): 1 (16.67%) n (%)
LVEF Change From Baseline ≤ -10, participants ([2]; SAD 20 mg N=6, 24 h): 0 (0%) n (%)
LVEF Change From Baseline ≤ -15, participants ([2]; SAD 20 mg N=6, 24 h): 0 (0%) n (%)
LVFS Change from Baseline ≤ -5, participants ([2]; SAD 20 mg N=6, 24 h): 2 (33.33%) n (%)
LVFS Change from Baseline ≤ -10, participants ([2]; SAD 20 mg N=6, 24 h): 0 (0%) n (%)
LVFS Change from Baseline ≤ -15, participants ([2]; SAD 20 mg N=6, 24 h): 0 (0%) n (%)
number of subjects with LVEF reduction of 10%–15% ([2]; SAD 20 mg group, 1.5 h post-dose): one
number of participants with LVEF reduction of 5%–10% ([2]; SAD 20 mg-dose group, 1.5 h post-dose): three
LVFS change from baseline vs placebo group by PK concentration group ([2]; SAD cohorts, group 2: 37.6–56.3 ng/mL, p < 0.05): statistically significant changes from baseline
LVEF change from baseline vs placebo group by PK concentration group ([2]; SAD cohorts, group 3: 62.5–199.0 ng/mL, p < 0.05): statistically significant changes from baseline
PK–PD relationship between plasma concentration and LVEF and LVFS ([2]; SAD cohorts, p < 0.05): significant inverse PK–PD relationships
PD parameter changes from baseline, dose group vs placebo group ([2]; any dose group, ANOVA): no statistically significant difference
